Results as given in patent US20110117009A1, “DRUG CONJUGATES WITH POLYGLYCEROLS” (FREIE UNIVERSITÄT BERLIN, priority 2008, published 2011).
Marks after values point to notes of the source that are not given here.

Tests used:
[1] = system: human ovarian cancer xenografts (A2780); assay: In vivo efficacy in the ovarian carcinoma A2780 xenograft model; set-up: species or system female NMRI: nu/nu mice; details: doxorubicin 2×8 mg/kg, conjugates 3×24 mg/kg doxorubicin equivalents
Description: The mice were held in individually ventilaged cages (IVC) under sterile and standardized environmental conditions (25±2° C. room temperature, 50±10% relative humidity, 12 hour light-dark-rhythm). They received autoclaved food and bedding (ssniff, Soest, Germany) and acidified (pH 4.0) drinking water ad libitum. […] Mice were randomly distributed to the experimental groups (8 mice per group). When the tumors were grown to a palpable size, treatment was initiated.
(§1) Tumor size was measured twice weekly with a caliper-like instrument in two dimensions. Individual tumor volumes (V) were calculated by the formula V=(length×[width]^2)/2 and related to the values on the first day of treatment (relative tumor volume, RTV). Statistical analysis was performed with the U-test (Mann and Whitney) with p<0.05. The body weight of mice was determined every 3 to 4 days.

[2] = nude mice models, e.g. 2×12 mg/kg; cited from earlier work
[3] = Tolerability (mortality, body weight change) in the A2780 xenograft study; format: in vivo, female NMRI: nu/nu mice; details: i.v. weekly, doxorubicin 2×8 mg/kg, conjugates 3×24 mg/kg doxorubicin equivalents
Description: In vivo efficacy studies were carried out with compounds 1-A, 1-B, and 1-C and doxorubicin in the ovarian carcinoma A2780 xenograft model. For the in vivo testing, female NMRI: nu/nu mice (Taconic, Denmark) were used. The mice were held in individually ventilaged cages (IVC) under sterile and standardized environmental conditions (25±2° C. room temperature, 50±10% relative humidity, 12 hour light-dark-rhythm). They received autoclaved food and bedding (ssniff, Soest, Germany) and acidified (pH 4.0) drinking water ad libitum. A2780 tumor fragments were transplanted subcutaneously (s.c.) into the left flank region of anaesthetized (40 mg/kg i.p. Radenarkon, Asta Medica, Frankfurt, Germany) mice on day zero. […]
as §1, with “Statistical analysis was performed with the U-test (Mann and Whitney) with p<0.05.” left out
The standard and maximum tolerated dose of doxorubicin (2×8 mg/kg) was compared to compounds 1-A, 1-B, and 1-C at 3×24 mg/kg (doxorubicin equivalents). […] J. Drug Targeting, 8: 305-318, 2000; Trail et al.: Antigen-specific activity of carcinoma-reactive BR64-doxorubicin conjugates evaluated in vitro and in human tumor xenograft models. […]

AsPC1 LN = assay: Cytotoxicity, luciferase readout after 72 h; format: cell-based; details: Homo sapiens
Description: After 72 h cells were lysed in 100 μL of luciferase assay buffer, and an aliquot of the lysate was assayed for luciferase activity.

COc1cccc2c1C(=O)c1c(O)c3c(c(O)c1C2=O)C[C@@](O)(C(=O)CO)C[C@@H]3O[C@H]1C[C@H](N)[C@H](O)[C@H](C)O1 [Doxorubicin, doxorubicin]
antitumor efficacy (in words) ([1]; A2780 xenografts): moderate antitumor efficacy | optimum T/C RTV ([1]; i.v. weekly, relative tumor volume treated versus control): 15* % | toxicity at higher doses [2]: unacceptable toxicity and mortality | toxic death ([3]; 8 mice per group): 0 | BWC (body weight change) ([3]; day in brackets): −21 (d26) % | IC50 (AsPC1 LN): 360 nM
